Source: patent US6864396B2, “Substituted pentacene semiconductors” (3M Innovative Properties Company, priority 2001, dated 2005)

Type: physicochemical
Conditions: for Weight %: solubility in THF, 25° C., calculated with extinction coefficient of pentacene
Protocol: The solubility of several alkyl substituted pentacenes in tetrahydrofuran (THF) was compared with that of pentacene. Samples were prepared by adding excess alkyl substituted pentacene compounder pentacene compound to newly opened THF and sonicating for 20-30 seconds to facilitate dissolution. All handling of the solutions and solvent was done in a nitrogen-purged environment. Solutions were transferred to a 1 cm cuvette with a disposable pipette. The cuvette was then placed in a spectrophotometer for 5 minutes for temperature equilibration (25° C.). Absorbance measurements were made using an Hewlett Packard 8453 photodiode array spectrophotometer over a range of wavelengths from 200 to 1100 nm. THF was used as a reference blank. All of the spectrographs were corrected for baseline differences, which possibly resulted from excess compound in suspension. In calculating the concentration and weight % values, the extinction coefficient of pentacene that is, 10^3.76 at 577 nm was used for all substituted pentacenes.

| SMILES | Concentration | Solubility in THF compared with pentacene, 2,9-dimethylpentacene, 2,10-dimethylpentacene, 2,9-didodecylpentacene | Weight % | Absorbance at 577 nm | Relative Absorbance |
| --- | --- | --- | --- | --- | --- |
| CC(CCc1ccc2cc3cc4cc5cc(CCC(C)CC(C)(C)C)ccc5cc4cc3cc2c1)CC(C)(C)C (centres unmarked) [2,9-di(3,5,5-trimethylhexyl)pentacene, 2,9-Di(3,5,5-trimethylhexyl)pentacene] | 3350 µM | significantly more soluble | 2.00 × 10^−1 Weight % | – | – |
| CCCCCCCCCCCCc1ccc2cc3cc4cc5cc(CCCCCCCCCCCC)ccc5cc4cc3cc2c1 [2,9-didodecylpentacene, 2,9-Didodecylpentacene] | 10.7 µM | – | 7.38 × 10^−4 Weight % | 0.061 | 0.420 |
| CCCCCCc1ccc2cc3cc4cc5cc(CCCCCC)ccc5cc4cc3cc2c1 [2,9-dihexylpentacene, 2,9-Dihexylpentacene] | 172 µM | significantly more soluble | 8.62 × 10^−3 Weight % | 0.987 | 6.752 |
| Cc1ccc2cc3cc4cc5cc(C)ccc5cc4cc3cc2c1 [2,9-dimethylpentacene, 2,9-Dimethylpentacene] | 3.59 µM | – | 1.64 × 10^−4 Weight % | 0.021 | 0.142 |
| CCCCCCCCCc1ccc2cc3cc4cc5cc(CCCCCCCCC)ccc5cc4cc3cc2c1 [2,9-dinonylpentacene, 2,9-Dinonylpentacene] | 243 µM | significantly more soluble | 1.45 × 10^−2 Weight % | 1.398 | 9.562 |
| Cc1ccc2cc3cc4cc5ccc(C)cc5cc4cc3cc2c1 [2,10-dimethylpentacene, 2,10-Dimethylpentacene] | 6.06 µM | – | 2.77 × 10^−4 Weight % | 0.035 | 0.239 |
| c1ccc2cc3cc4cc5ccccc5cc4cc3cc2c1 [pentacene] | 25.4 µM | – | 7.95 × 10^−4 Weight % | 0.146 | 1.000 |
